According to publication PMC10547211, “Neuronal expression in Drosophila of an evolutionarily conserved metallophosphodiesterase reveals pleiotropic roles in longevity and odorant response” (PLOS Genetics, 2023):

Target: T1, dMpped (Drosophila melanogaster, UniProt Q9VT29)
T1 construct: gene Mpped; full-length coding region (300 residues) amplified from whole-fly cDNA; E. coli BL21DE3; gel filtration; about 37 kDa on gel
Assay: colorimetric p-nitrophenol release, […] nm
Format: biochemical
Conditions: Mn2+ as metal cofactor (5 mM in standard assay); pH 9.0 triple buffer; 5 mM 2-mercaptoethanol; 10 mM NaCl

T1 sequence (Q9VT29 entry or part of it): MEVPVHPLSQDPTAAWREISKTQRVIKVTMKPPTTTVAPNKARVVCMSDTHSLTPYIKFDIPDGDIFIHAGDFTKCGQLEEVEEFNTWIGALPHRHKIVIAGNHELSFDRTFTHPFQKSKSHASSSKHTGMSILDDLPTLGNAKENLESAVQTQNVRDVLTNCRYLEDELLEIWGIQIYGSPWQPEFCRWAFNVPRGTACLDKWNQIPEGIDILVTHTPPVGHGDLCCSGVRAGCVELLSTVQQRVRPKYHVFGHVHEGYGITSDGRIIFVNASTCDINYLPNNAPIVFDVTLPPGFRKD

## O=[N+]([O-])c1ccc(OP(=O)(O)c2ccccc2)cc1 [pNPPP]
  Km: ~10 mM
